Among the data in ChEMBL document CHEMBL1150719, “Constituents of Tritonia crocosmaeflora, I. Tricrozarin A, a novel antimicrobial naphthazarin derivative” (1987) are MIC values, retold here.

In brackets after ≈: the same amount, converted by molar mass.

What is called MIC is the lowest concentration found to suppress growth. A high value points to a less susceptible organism.

Format in all cases: functional
In one experiment the test system is Bacillus subtilis. Description: Antibacterial activity against Bacillus subtilis PCI 219 after 24 hrs at 37 degC by paper disk assay. The note with it: PCI 219, 24 h.
A further experiment relates to Candida albicans. Kind of experiment: Antifungal activity against Candida albicans KF1 at 27 degC by paper disk assay.
The subject of the next experiment is Saccharomyces. Description: Antifungal activity against Saccharomyces sake KF26 at 27 degC by paper disk assay.
The subject of a further experiment is Micrococcus luteus. Description: Antibacterial activity against Micrococcus luteus ATCC 9341 after 24 hrs at 37 degC by paper disk assay. As to conditions: ATCC 9341, 24 h.
Another experiment has as its system Aspergillus niger. Kind of experiment: Antifungal activity against Aspergillus niger ATCC 6275 at 27 degC by paper disk assay.
Another experiment deals with Mucor racemosus. Kind of experiment: Antifungal activity against Mucor racemosus IFO 5403 at 27 degC by paper disk assay.

On to `COC1=C(OC)C(=O)c2c(O)c3c(c(O)c2C1=O)OCO3` [TRICROZARIN A], for which the minimal inhibitory concentration (MIC) was 5.1 µg/mL (≈ 17.3 µM) in the experiment on Bacillus subtilis; 81.3 µg/mL (≈ 276 µM) in the experiment on Candida albicans; 81.3 µg/mL (≈ 276 µM) against Saccharomyces; 112 µg/mL (≈ 381 µM) in the experiment with Micrococcus luteus; 81.3 µg/mL (≈ 276 µM) against Aspergillus niger; 10.2 µg/mL (≈ 34.7 µM) in the experiment on Mucor racemosus.
